# Experimental data as given in PMC6499206, “Quantification of Volatile Metabolites Derived From Garlic (Allium sativum) in Human Urine” (Frontiers in Nutrition, 2019).
# Assay: Quantification of garlic-derived metabolites in human urine after ingestion of 3 g raw garlic (SIDA, SAFE, HRGC-MS / HRGC-GC-MS)
# Type: in vivo
# Conditions: for metabolite concentration in urine / metabolite concentration in urine, creatinine-normalized: 3 g raw garlic
# Excerpt: Human urine samples were obtained from 18 volunteers (age 22–38 years, mean 27 years; 11 females, 7 males); thereby, one volunteer conducted the whole experimental series twice. At the time of examination, volunteers reported no known illness that might have potentially influenced the metabolism or the excretion of urine. The test persons were instructed to avoid foods that were rich in sulfur-containing substances at the testing day as well as 2 days preceding the testing day, namely garlic, onion, wild garlic, chives, cabbage, and leek, and were only allowed to consume the garlic sample provided in the course of the experiments. Additionally, subjects were asked to keep records of the food (including food supplements) and beverages they consumed during these 3 testing days. Generally, the overall panelists' requirements were in accordance with our previous studies ([5], [16]).
# On the sampling day, the outer garlic cloves of a whole garlic bulb were peeled and cut into ~3 mm cubes by using a garlic cutter (Genius GmbH, Limburg/Lahn, Germany). Subsequently these cubes were thoroughly mixed and aliquoted into 3 g portions. Three to four test persons conducted the experiment at the same day. Each test person was asked to ingest a garlic portion of 3 g. In total, eight consecutive urine samples were provided by each test person, comprising one whole urine set. The samples were collected in sterile brown glass bottles, with sampling times as follows: one sample was provided directly prior to garlic consumption. The series of the second to eighth sample was then obtained at about 0.5, 1, 2, 4, 6, 8, and 24 h after garlic consumption, respectively. Between the first urine sample (prior to garlic consumption) and the seventh urine sample (8 h after garlic consumption) test persons only spent urine at the specific time points mentioned before. Another sample was provided at the next morning (24 h after garlic consumption). Between the samples provided 8 and 24 h after garlic consumption no urine was collected. All samples were immediately placed into a −80°C freezer and were kept frozen until further analysis.
# The samples of each set were termed according to their sampling time. The following list provides the time intervals that are related to the respective sample name: • - pre: before garlic consumption • - 0.5 h post: 0.4–0.8 h after garlic consumption • - 1 h post: 0.9–1.3 h after garlic consumption • - 2 h post: 1.8 h−2.2 h after garlic consumption • - 4 h post: 3.8–4.4 h after garlic consumption • - 6 h post: 5.8–6.4 h after garlic consumption • - 8 h post: 7.8–8.4 h after garlic consumption • - 24 h post: 23.8–25.6 h after garlic consumption
# A creatinine kit (Labor+Technik Eberhard Lehmann GmbH, Berlin, Germany) was used to determine the creatinine content in each urine sample. The determination principle of this kit is based on the reaction of creatinine with picric acid under basic conditions (Jaffé reaction). The formed complex was detected photometrically at a wavelength of 492 nm.
# For quantification purposes, the deuterated standards ^2H3-AMS, ^2H3-AMSO, and ^2H3-AMSO2 were added to the sample and stirred for 10 min. Subsequently, DCM was added in a ratio of 1:2 (DCM/human urine; v/v) and this solution was stirred for further 30 min at room temperature. To isolate the volatile fraction from the urine samples we then applied SAFE-distillation ([17]), thereby distilling the respective samples at 50°C. After completion of the distillation process, 10 mL of DCM were applied in each case to rinse the SAFE apparatus and to ensure complete transition of the volatile compounds. This process was repeated with another 10 mL of DCM. After thawing, the obtained aqueous distillate phase was extracted three times with 25 mL DCM. The organic phases were combined, dried over anhydrous Na2SO4 and concentrated to a total volume of 100 μL by means of Vigreux distillation and subsequent micro-distillation at 50°C. […]
structure (smiles),measurement,setting,value
"C=CCS(C)(=O)=O [AMSO2, allyl methyl sulfone]",concentration in urine compared with human milk,"3 g raw garlic in both studies, milk data ref 20",about twice as high
same,metabolite concentration in urine,"U I, 0.5 h post (0.55 h)",41.7 µg/kg
same,"metabolite concentration in urine, creatinine-normalized","U I, 0.5 h post (0.55 h)",5.8 µg/mmol creatinine
same,metabolite concentration in urine,"U I, 1 h post (1.03 h)",98.5 µg/kg
same,"metabolite concentration in urine, creatinine-normalized","U I, 1 h post (1.03 h)",106.3 µg/mmol creatinine
same,metabolite concentration in urine,"U I, 2 h post (2.05 h)",138.8 µg/kg
same,"metabolite concentration in urine, creatinine-normalized","U I, 2 h post (2.05 h)",68.4 µg/mmol creatinine
same,metabolite concentration in urine,"U I, 4 h post (4.05 h)",172.3 µg/kg
same,"metabolite concentration in urine, creatinine-normalized","U I, 4 h post (4.05 h)",19.6 µg/mmol creatinine
same,metabolite concentration in urine,"U I, 6 h post (6.05 h)",170.7 µg/kg
same,"metabolite concentration in urine, creatinine-normalized","U I, 6 h post (6.05 h)",18.6 µg/mmol creatinine
same,metabolite concentration in urine,"U I, 8 h post (8.05 h)",119.9 µg/kg
same,"metabolite concentration in urine, creatinine-normalized","U I, 8 h post (8.05 h)",16.3 µg/mmol creatinine
same,metabolite concentration in urine,"U I, 24 h post (25.55 h)",5.6 µg/kg
same,"metabolite concentration in urine, creatinine-normalized","U I, 24 h post (25.55 h)",0.9 µg/mmol creatinine
same,metabolite concentration in urine,"U I, pre (-0.03 h)",< LOD^3
same,"metabolite concentration in urine, creatinine-normalized","U I, pre (-0.03 h)",< LOD^3
same,metabolite concentration in urine,"U II, 0.5 h post (0.50 h)",32.4 µg/kg
same,"metabolite concentration in urine, creatinine-normalized","U II, 0.5 h post (0.50 h)",3.0 µg/mmol creatinine
same,metabolite concentration in urine,"U II, 1 h post (1.00 h)",68.0 µg/kg
same,"metabolite concentration in urine, creatinine-normalized","U II, 1 h post (1.00 h)",26.1 µg/mmol creatinine
same,metabolite concentration in urine,"U II, 2 h post (2.00 h)",62.1 µg/kg
same,"metabolite concentration in urine, creatinine-normalized","U II, 2 h post (2.00 h)",61.0 µg/mmol creatinine
same,metabolite concentration in urine,"U II, 4 h post (4.00 h)",75.1 µg/kg
same,"metabolite concentration in urine, creatinine-normalized","U II, 4 h post (4.00 h)",13.8 µg/mmol creatinine
same,metabolite concentration in urine,"U II, 6 h post (6.00 h)",61.7 µg/kg
same,"metabolite concentration in urine, creatinine-normalized","U II, 6 h post (6.00 h)",6.8 µg/mmol creatinine
same,metabolite concentration in urine,"U II, 8 h post (8.00 h)",41.3 µg/kg
same,"metabolite concentration in urine, creatinine-normalized","U II, 8 h post (8.00 h)",4.9 µg/mmol creatinine
same,metabolite concentration in urine,"U II, 24 h post (24.12 h)",1.9 µg/kg
same,"metabolite concentration in urine, creatinine-normalized","U II, 24 h post (24.12 h)",0.1 µg/mmol creatinine
same,metabolite concentration in urine,"U II, pre (-0.13 h)",< LOD^3
same,"metabolite concentration in urine, creatinine-normalized","U II, pre (-0.13 h)",< LOD^3
same,metabolite concentration in urine,"U III, 0.5 h post (0.53 h)",41.9 µg/kg
same,"metabolite concentration in urine, creatinine-normalized","U III, 0.5 h post (0.53 h)",24.9 µg/mmol creatinine
same,metabolite concentration in urine,"U III, 1 h post (1.07 h)",83.3 µg/kg
same,"metabolite concentration in urine, creatinine-normalized","U III, 1 h post (1.07 h)",117.5 µg/mmol creatinine
same,metabolite concentration in urine,"U III, 2 h post (2.18 h)",145.2 µg/kg
same,"metabolite concentration in urine, creatinine-normalized","U III, 2 h post (2.18 h)",89.7 µg/mmol creatinine
same,metabolite concentration in urine,"U III, 4 h post (4.35 h)",168.2 µg/kg
same,"metabolite concentration in urine, creatinine-normalized","U III, 4 h post (4.35 h)",63.4 µg/mmol creatinine
same,metabolite concentration in urine,"U III, 6 h post (6.35 h)",134.9 µg/kg
same,"metabolite concentration in urine, creatinine-normalized","U III, 6 h post (6.35 h)",26.1 µg/mmol creatinine
same,metabolite concentration in urine,"U III, 8 h post (8.43 h)",86.7 µg/kg
same,"metabolite concentration in urine, creatinine-normalized","U III, 8 h post (8.43 h)",15.3 µg/mmol creatinine
same,metabolite concentration in urine,"U III, 24 h post (23.90 h)",5.6 µg/kg
same,"metabolite concentration in urine, creatinine-normalized","U III, 24 h post (23.90 h)",0.9 µg/mmol creatinine
same,metabolite concentration in urine,"U III, pre (-0.03 h)",7.3 µg/kg
same,"metabolite concentration in urine, creatinine-normalized","U III, pre (-0.03 h)",1.3 µg/mmol creatinine
same,metabolite concentration in urine,"U IV, 0.5 h post (0.55 h)",31.0 µg/kg
same,"metabolite concentration in urine, creatinine-normalized","U IV, 0.5 h post (0.55 h)",6.6 µg/mmol creatinine
same,metabolite concentration in urine,"U IV, 1 h post (1.05 h)",63.2 µg/kg
same,"metabolite concentration in urine, creatinine-normalized","U IV, 1 h post (1.05 h)",52.7 µg/mmol creatinine
same,metabolite concentration in urine,"U IV, 2 h post (2.12 h)",82.8 µg/kg
same,"metabolite concentration in urine, creatinine-normalized","U IV, 2 h post (2.12 h)",52.5 µg/mmol creatinine
same,metabolite concentration in urine,"U IV, 4 h post (4.05 h)",108.4 µg/kg
same,"metabolite concentration in urine, creatinine-normalized","U IV, 4 h post (4.05 h)",22.3 µg/mmol creatinine
